Consider 31 compounds from US8183239B2, “Substituted piperazines and piperidines as modulators of the neuropeptide Y2 receptor” (Janssen Pharmaceutica NV, priority 2005, dated 2012).

The test addresses T1, Y2 receptors (Homo sapiens, UniProt P49146).
T1 construct: endogenous in cells; host or cells: KAN-Ts cells (membranes)
T1 sequence (P49146 1-381): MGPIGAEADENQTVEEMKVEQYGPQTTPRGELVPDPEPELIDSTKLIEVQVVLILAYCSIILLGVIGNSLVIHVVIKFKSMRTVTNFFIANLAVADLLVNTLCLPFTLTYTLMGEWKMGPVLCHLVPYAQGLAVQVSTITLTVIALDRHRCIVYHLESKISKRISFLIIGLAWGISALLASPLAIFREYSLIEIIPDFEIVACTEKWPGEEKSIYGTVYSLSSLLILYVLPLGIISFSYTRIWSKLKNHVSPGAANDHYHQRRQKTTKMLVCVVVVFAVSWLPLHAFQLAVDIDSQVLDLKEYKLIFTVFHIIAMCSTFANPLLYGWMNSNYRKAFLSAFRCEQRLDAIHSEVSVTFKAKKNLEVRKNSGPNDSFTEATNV
In words: Radioligand binding assay ([125I]PYY, KAN-Ts cell membranes). To be noted: Table 2, [125I]PYY 80 pM, average of results, read-out: IC50. In a few lines:
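Membranes from KAN-Ts cells endogenously expressing Y2 incubated 1 h at rt with 80 pM [^125I]PYY ± test compound in HEPES buffer with NaCl, Ca^2+ and Mg^2+. Bound radioactivity collected by filtration; specific binding defined with […]. IC50 from sigmoidal fit, averaged over 3-8 duplicate experiments.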

The IC50 is the concentration that gives 50% inhibition.

Regarding `CCC(CC)C(=O)Nc1ccc(N2CCN(C(C(=O)N(CC)CC)c3ccccn3)CC2)c(F)c1` (stereo not shown) [Example 260, N-{4-[4-(Diethylcarbamoyl-pyridin-2-yl-methyl)-piperazin-1-yl]-3-fluoro-phenyl}-2-ethyl-butyramide], the IC50 was found to be 100 nM.
With `CCC(CC)C(=O)Nc1ccc(N2CCN(C(C(=O)N3CCC(F)(F)C3)c3ccccn3)CC2)c(F)c1` (stereo not shown) [Example 261, N-(4-{4-[2-(3,3-Difluoro-pyrrolidin-1-yl)-2-oxo-1-pyridin-2-yl-ethyl]-piperazin-1-yl}-3-fluoro-phenyl)-2-ethyl-butyramide] the figure was 130 nM; with `CCC(CC)C(=O)Nc1ccc(N2CCN(C(C(=O)OC)c3ccc(O)cc3)CC2)c(F)c1` (stereo not shown) [Example 262, {4-[4-(2-Ethyl-butyrylamino)-2-fluoro-phenyl]-piperazin-1-yl}-(4-hydroxy-phenyl)-acetic acid methyl ester], 162 nM; with `CCC(CC)C(=O)Nc1ccc(N2CCN(C(C(=O)OC)c3ccc(OC)cc3)CC2)c(F)c1` (stereo not shown) [Example 263, {4-[4-(2-Ethyl-butyrylamino)-2-fluoro-phenyl]-piperazin-1-yl}-(4-methoxy-phenyl)-acetic acid methyl ester], 250 nM.
Regarding `CCC(CC)C(=O)Nc1ccc(N2CCN(C(C(=O)OC)c3ccccn3)CC2)c(F)c1` (stereo not shown) [Example 264, {4-[4-(2-Ethyl-butyrylamino)-2-fluoro-phenyl]-piperazin-1-yl}-pyridin-2-yl-acetic acid methyl ester], the half-inhibitory concentration (IC50) was found to be 550 nM.
With `CCC(CC)C(=O)Nc1ccc(N2CCN(C(CO)c3ccccc3)CC2)c(F)c1` (stereo not shown) [Example 266, 2-Ethyl-N-{3-fluoro-4-[4-(2-hydroxy-1-phenyl-ethyl)-piperazin-1-yl]-phenyl}-butyramide], the 50% inhibitory concentration (IC50) was 785 nM.
The figure for `CCC(CC)C(=O)Nc1ccc(N2CCN(C(C)c3ccccc3)CC2)c(F)c1` (stereo not shown) [Example 267, 2-Ethyl-N-{3-fluoro-4-[4-(1-phenyl-ethyl)-piperazin-1-yl]-phenyl}-butyramide] is 1270 nM; for `CCC(CC)C(=O)Nc1ccc(N2CCN(Cc3ccccc3)CC2)c(F)c1` [Example 268, N-[4-(4-Benzyl-piperazin-1-yl)-3-fluoro-phenyl]-2-ethyl-butyramide] it is 1400 nM.
The figure for `CCC(CC)C(=O)Nc1ccc(N2CCN(Cc3ccc4c(c3)OCO4)C(C(=O)OC)C2)c(F)c1` (stereo not shown) [Example 270, 1-Benzo[1,3]dioxol-5-ylmethyl-4-[4-(2-ethyl-butyrylamino)-2-fluoro-phenyl]-piperazine-2-carboxylic acid methyl ester] is 3000 nM; for `CCC(CC)C(=O)Nc1ccc(N2CCN(Cc3ccccc3)C(C(=O)OC)C2)c(F)c1` (stereo not shown) [Example 271, 1-Benzyl-4-[4-(2-ethyl-butyrylamino)-2-fluoro-phenyl]-piperazine-2-carboxylic acid methyl ester] it is 4000 nM; for `CCC(CC)C(=O)Nc1ccc(N2CC3CC2CN3C(C(=O)N(CC)CC)c2ccccc2)c(F)c1` (stereo not shown) [Example 272, N-{4-[5-(Diethylcarbamoyl-phenyl-methyl)-2,5-diaza-bicyclo[2.2.1]heptyl]-3-fluoro-phenyl}-2-ethyl-butyramide] it is 4000 nM.
The figure for `CCC(CC)C(=O)Nc1ccc(N2CCN(Cc3cc(F)cc(F)c3)C(C(=O)OC)C2)c(F)c1` (stereo not shown) [Example 273, 1-(3,5-Difluoro-benzyl)-4-[4-(2-ethyl-butyrylamino)-2-fluoro-phenyl]-piperazine-2-carboxylic acid methyl ester] is 7000 nM.
Turning to `CCN(CC)C(=O)C(c1ccccc1)N1CCN(c2ccc(N3CCCC3=O)cc2F)CC1` (stereo not shown) [Example 274, N,N-Diethyl-2-{4-[2-fluoro-4-(2-oxo-pyrrolidin-1-yl)-phenyl]-piperazin-1-yl}-2-phenyl-acetamide], the IC50 is 1600 nM.
Turning to `CCN(CC)C(=O)C(c1ccccc1)N1CCN(c2ccc(CC(=O)N3CCCCC3c3ccccc3)cc2F)CC1` (stereo not shown) [Example 275, N,N-Diethyl-2-(4-{2-fluoro-4-[2-oxo-2-(2-phenyl-piperidin-1-yl)-ethyl]-phenyl}-piperazin-1-yl)-2-phenyl-acetamide], the 50% inhibitory concentration (IC50) stood at 142 nM.
The figure for `CCN(CC)C(=O)C(c1ccccc1)N1CCN(c2ccc(CC(=O)N3CCCC3c3ccccc3)cc2F)CC1` (stereo not shown) [Example 276, N,N-Diethyl-2-(4-{2-fluoro-4-[2-oxo-2-(2-phenyl-pyrrolidin-1-yl)-ethyl]-phenyl}-piperazin-1-yl)-2-phenyl-acetamide] is 200 nM; for `CCC1CCCCN1C(=O)Cc1ccc(N2CCN(C(C(=O)N(CC)CC)c3ccccc3)CC2)c(F)c1` (stereo not shown) [Example 277, N,N-Diethyl-2-(4-{4-[2-(2-ethyl-piperidin-1-yl)-2-oxo-ethyl]-2-fluoro-phenyl}-piperazin-1-yl)-2-phenyl-acetamide] it is 320 nM; for `CCN(CC)C(=O)C(c1ccccc1)N1CCN(c2ccc(CC(=O)N(C)Cc3ccco3)cc2F)CC1` (stereo not shown) [Example 278, N,N-Diethyl-2-(4-{2-fluoro-4-[(furan-2-ylmethyl-methyl-carbamoyl)-methyl]-phenyl}-piperazin-1-yl)-2-phenyl-acetamide] it is 320 nM.
With `CCN(CC)C(=O)C(c1ccccc1)N1CCN(c2ccc(CC(=O)N3C(C)CCC3C)cc2F)CC1` (stereo not shown) [Example 279, 2-(4-{4-[2-(2,5-Dimethyl-pyrrolidin-1-yl)-2-oxo-ethyl]-2-fluoro-phenyl}-piperazin-1-yl)-N,N-diethyl-2-phenyl-acetamide] the figure was 540 nM; with `CCN(CC)C(=O)C(c1ccccc1)N1CCN(c2ccc(CC(=O)N3CCCCC3c3cccnc3)cc2F)CC1` (stereo not shown) [Example 280, N,N-Diethyl-2-(4-{2-fluoro-4-[2-oxo-2-(3,4,5,6-tetrahydro-2H-[2,3′]bipyridinyl-1-yl)-ethyl]-phenyl}-piperazin-1-yl)-2-phenyl-acetamide], 570 nM; with `CCC(CC)NC(=O)Cc1ccc(N2CCN(C(C(=O)N(CC)CC)c3ccccc3)CC2)c(F)c1` (stereo not shown) [Example 281, N,N-Diethyl-2-(4-{4-[(1-ethyl-propylcarbamoyl)-methyl]-2-fluoro-phenyl}-piperazin-1-yl)-2-phenyl-acetamide], 560 nM.
With `CCN(CC)C(=O)C(c1ccccc1)N1CCN(c2ccc(CC(=O)N3CCCC3C)cc2F)CC1` (stereo not shown) [Example 282, N,N-Diethyl-2-(4-{2-fluoro-4-[2-(2-methyl-pyrrolidin-1-yl)-2-oxo-ethyl]-phenyl}-piperazin-1-yl)-2-phenyl-acetamide] the figure was 940 nM.
As for `CCN(CC)C(=O)C(c1ccccc1)N1CCN(c2ccc(CC(=O)N3CCCC3)cc2F)CC1` (stereo not shown) [Example 283, N,N-Diethyl-2-{4-[2-fluoro-4-(2-oxo-2-pyrrolidin-1-yl-ethyl)-phenyl]-piperazin-1-yl}-2-phenyl-acetamide], the IC50 is 1200 nM.
With `CCN(CC)C(=O)Cc1ccc(N2CCN(C(C(=O)N(CC)CC)c3ccccc3)CC2)c(F)c1` (stereo not shown) [Example 284] the figure was 1500 nM; with `CCN(CC)C(=O)C(c1ccccc1)N1CCN(c2ccc(CC(=O)NCc3ccccc3)cc2F)CC1` (stereo not shown) [Example 285], 1900 nM.
The figure for `CCN(CC)C(=O)C(c1ccccc1)N1CCN(c2ccc(CC(=O)N(C)Cc3ccccc3)cc2F)CC1` (stereo not shown) [Example 286] is 2100 nM; for `CCN(Cc1ccccc1)C(=O)Cc1ccc(N2CCN(C(C(=O)N(CC)CC)c3ccccc3)CC2)c(F)c1` (stereo not shown) [Example 287] it is 2200 nM; for `CCC(CC)NC(=O)Cc1ccc(N2CCN(C(C(=O)N3CCC(F)(F)C3)c3ccccc3)CC2)c(F)c1` (stereo not shown) [Example 288, 2-(4-{4-[2-(3,3-Difluoro-pyrrolidin-1-yl)-2-oxo-1-phenyl-ethyl]-piperazin-1-yl}-3-fluoro-phenyl)-N-(1-ethyl-propyl)-acetamide] it is 2100 nM.
With `CCN(CC)C(=O)Cc1ccc(N2CCN(C(C(=O)N3CCC(F)(F)C3)c3ccccc3)CC2)c(F)c1` (stereo not shown) [Example 289, 2-(4-{4-[2-(3,3-Difluoro-pyrrolidin-1-yl)-2-oxo-1-phenyl-ethyl]-piperazin-1-yl}-3-fluoro-phenyl)-N,N-diethyl-acetamide] the figure was 3450 nM; with `CCNC(=O)Cc1ccc(N2CCN(C(C(=O)N(CC)CC)c3ccccc3)CC2)c(F)c1` (stereo not shown) [Example 290, N,N-Diethyl-2-[4-(4-ethylcarbamoylmethyl-2-fluoro-phenyl)-piperazin-1-yl]-2-phenyl-acetamide], 4300 nM; with `CCN(CC)C(=O)C(c1ccccc1)N1CCN(c2ccc(CC(=O)NC3CCCC3)cc2F)CC1` (stereo not shown) [Example 291, 2-[4-(4-Cyclopentylcarbamoylmethyl-2-fluoro-phenyl)-piperazin-1-yl]-N,N-diethyl-2-phenyl-acetamide], 8700 nM.
Regarding `CCC(CC)C(=O)Nc1ccc(N2CCN(C(C(=O)N(C)C)c3ccccc3)CC2)c(F)c1` (stereo not shown) [Example 292, N-{4-[4-(Dimethylcarbamoyl-phenyl-methyl)-piperazin-1-yl]-3-fluoro-phenyl}-2-ethyl-butyramide], the IC50 was 104 nM.
